Assay results as given in patent US8278352B2, “Pesticide compositions and methods” (Commonwealth Scientific & Industrial Research Organisation, priority 2004, dated 2012).
Entries after “also recorded” stand apart in the source; their conditions may differ. Where a name gives a salt, the structure may show the parent alone.

How the values were obtained:
[1] = Stability of ethyl formate and methyl isothiocyanate formulation stored at 25° C.; type: physicochemical; conditions: for stability when formulated and stored: 25° C., 2 months; for percent of the original fumigant present (M/Mo): formulation stored at 25° C.
Method: The stability of ethyl formate and methyl isothiocyanate as a fumigant formulation stored at 25° C. was assessed for a period of 1 day, 1 month and 2 months. […] This is also graphically represented in FIG. 1.

[2] = test system: adults of Sitophilus oryzae; experiment: Toxicity study on adults of Sitophilus oryzae (fumigation, mortality); type: in vivo; conditions: 25° C., 24 hours fumigation
Method: The insect species studied were laboratory strains of the rice weevil Sitophilus oryzae present as the egg, larvae, pupae or adult and mixed aged cultures thereof in bulk stores of wheat.
Toxicity studies of ethyl formate alone compared with ethyl formate and […] were conducted on adults of the rice weevil Sitophilus oryzae at 25° C. and 24 hours fumigation.

[3] = test system: mixed aged cultures (egg, larvae and pupae) of S. oryzae; experiment: Emerging adult study on mixed aged cultures of S. oryzae; type: in vivo; conditions: Sitophilus oryzae, 25° C., 6 hours fumigation, read-out: emerging adult population, % of control
Method: Table 3 compares the toxicity of ethyl formate alone and ethyl formate+methyl isothiocyanate to mixed aged cultures (egg, larvae and pupae) of S. oryzae at 25° C. after 6 hours fumigation at two concentrations.

pupae of S. oryzae = experiment: Emerging adult study on pupae of S. oryzae; type: in vivo, Sitophilus oryzae; conditions: 25° C.
Method: Table 4 compares the toxicity of ethyl formate alone and ethyl formate+methyl isothiocyanate to pupae of S. oryzae at 25° C. after 6 hours fumigation at two concentrations.
Table 5 compares the toxicity of ethyl formate alone and ethyl formate+methyl isothiocyanate to pupae of S. oryzae at 25° C. after 24 hours fumigation at two concentrations.

[4] = 4 tonne outloading trial: fumigant concentration next day; conditions: 160 g/t, tray of wheat, overnight, 20° C.
Method: During outloading, wheat was treated/fumigated with a 95:5 (w:w) ratio of ethyl formate+methyl isothiocyanate at a rate of 160 g/t. The treated wheat was then transferred by auger into a 4 tonne truck tray and then covered and held overnight (see FIG. 10).

Compound	stability when formulated and stored [1]	percent of the original fumigant present (M/Mo) ([1]; 1 Day)	percent of the original fumigant present (M/Mo) ([1]; 1 Month)	percent of the original fumigant present (M/Mo) ([1]; 2 Months)	mortality ([2]; 5.9 mg/L)	mortality at 5.9 µg/mL ([2]; Sitophilus oryzae, 5.9 mg/L)	mortality at 11.8 µg/mL ([2]; Sitophilus oryzae, 11.8 mg/L)	activity at 67.4 µg/mL ([3]; 67.4 mg/L)	activity at 101.1 µg/mL ([3]; 101.1 mg/L)	emerging adult % (pupae of S. oryzae; 34.8 mg/L, 24 hours fumigation)	emerging adult % (pupae of S. oryzae; 67.4 mg/L, 6 hours fumigation)	emerging adult % (pupae of S. oryzae; 67.4 mg/L, 24 hours fumigation)	emerging adult % (pupae of S. oryzae; 101.1 mg/L, 6 hours fumigation)	concentration of fumigant component on the next day [4]
CCOC=O [EtF, ethyl formate]	stable	100%	102%	98.5%	inactive; also recorded: unaffected	0%	48%	27%	5%	19%	24%	9%	12%	below TLV
CN=C=S [MITC, methyl isothiocyanate]	stable	100%	98%	101.5%	–	–	–	–	–	–	–	–	–	below TLV
